# Reference: US10010584B2, “Treatment of depressive disorders” (Blanchette Rockefeller Neuroscience Institute, priority 2004, dated 2018)
# Where two headings read alike, the source gives them in different places.
# T1: PKCε (Homo sapiens, UniProt Q02156)
# T1 sequence (Q02156 1-737): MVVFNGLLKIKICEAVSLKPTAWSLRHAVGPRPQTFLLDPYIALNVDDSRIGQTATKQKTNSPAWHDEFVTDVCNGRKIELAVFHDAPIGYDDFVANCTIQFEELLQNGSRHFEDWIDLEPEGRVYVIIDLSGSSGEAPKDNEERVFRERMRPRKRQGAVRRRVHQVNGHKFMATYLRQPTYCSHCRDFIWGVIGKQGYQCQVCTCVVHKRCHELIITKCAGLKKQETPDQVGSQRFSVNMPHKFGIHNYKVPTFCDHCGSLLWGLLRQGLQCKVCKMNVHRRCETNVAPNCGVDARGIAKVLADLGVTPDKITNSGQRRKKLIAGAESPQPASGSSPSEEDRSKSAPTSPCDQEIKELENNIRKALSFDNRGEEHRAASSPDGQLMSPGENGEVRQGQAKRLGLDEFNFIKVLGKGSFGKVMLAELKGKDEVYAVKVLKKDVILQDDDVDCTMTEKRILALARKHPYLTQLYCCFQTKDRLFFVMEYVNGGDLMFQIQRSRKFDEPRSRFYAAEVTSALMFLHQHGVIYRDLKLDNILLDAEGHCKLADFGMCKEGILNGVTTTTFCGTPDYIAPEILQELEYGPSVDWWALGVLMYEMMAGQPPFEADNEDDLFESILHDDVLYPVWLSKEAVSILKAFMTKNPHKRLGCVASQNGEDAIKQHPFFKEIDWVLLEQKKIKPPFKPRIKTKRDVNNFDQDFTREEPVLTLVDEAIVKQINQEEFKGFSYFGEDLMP
# How the values were obtained:
# Adult Wistar rats = experiment: Open-space-swimming test; assay type: in vivo, rat; details: for mobility (distance moved) / immobility compared with control group: 10 mg/kg×3 per day, 23, 2 and 1 h before trial sessions, saline control; for percentages of decreases in the distance moved on the third day (using the decrease of control groups as 100%): 10 mg/kg×3 per day i.p., n=8
# Protocol: Adult Wistar rats (180-200 g) were housed in a temperature-controlled (20-24° C.) room for at least a week prior to experimentation, allowed free access to food and water, and kept on a 12-h light/dark cycle. They were randomly assigned to different groups (eight each) and were moved to the test room in their home cages at least 1 h before trials. Rats were individually placed into a round pool with a diameter of 152 cm and height of 60 cm and was filled with 40 cm H2O (22±1° C.). The room and pool are part of the started set-up used for spatial water maze task. (Sun et al. (2002) J. Pharmacol. Exp. Ther. 300: 408-416). The tests for different drug treatment and control groups were in a counterbalanced order. No escape was available in these trials. Rats were free to swim (or not to swim) for 15 min and then removed and returned to their home cage after drying. Observers were obscured from sight of the rats during the trials, but were able to observe the animals' behaviors on a video screen monitor during trials. The same procedure (15 min session per day) was repeated 24 h later and continued for 3 additional days. Drugs were dissolved in a saline solution for test groups and saline alone was used in the control groups. Imipramine (10 mg/kg×3 day, i.p.), iproniazid (10 mg/kg×3 per day, i.p.), mianserin (10 mg/kg×3 per day, i.p.), alaproclate (10 mg/kg×3 per day), or saline were administered between the swimming trial sessions at 23, 2, and 1 h before the second, third, and fourth trial sessions, respectively. The rationale for the three doses before test trials is the more consistent predictive effects than those of a single dose (Porsolt et al. (1977) Nature 266: 730-730-732; Porsolt et al. (1978) Eur J. Pharmacol. 47: 379-391; Poncelet et al, (1986) Psychopharmacology 90: 139-141). The swimming/drifting path was recorded with a video-tracking system that was also used for the spatial water maze task in other studies (Sun et al., 2002; Sun and Alkon, 2002a). The system tracks the animal's position by recording sequential x/y-coordinates of trigger events (video signal above track level) and calculating the distance, in the pool (sample period: 0.055 s) and adds the distance at pre-set intervals (15 min) during each trial. The tracking system, however, neither distinguishes nor determines the duration of any period of mobility or immobility. To evaluate whether the distance moved, as recorded by the tracking system, reflects the duration of active swimming, the investigator(s) also recorded the duration of active swimming on-line via the video screen monitor for a direct comparison of the two parameters.
# Depressive behavior in rats was induced by placing the animals in an open-space swimming apparatus, as described herein, for 15 minutes per trial per day. The animals were subjected to three trials over the course of three days. The animals were divided into three groups: control rats (8); phenylalanine rats (10); and imipramine rats (10). The control rats received a single i.v. dose of saline in the tail vein, 3.5 hours before the second trial. […] Rats in the imipramine group received 3 i.p. doses (10 mg/kg) at 23, 2 and 1 hour before the first, second and third trials, respectively.
# Depressive behavior in rats was induced by placing the animals in an open-space swimming apparatus, as described herein, for 15 minutes per trial per day. The animals were subjected to three trials over the course of three days. […] The control rats received a single i.v. dose of saline in the tail vein, 3.5 hours before the second trial.
# PKC [1] = details: cited from earlier work
# humans = details: cited from earlier work
# PKCε = biological target: T1, PKCε; details: cited from earlier work
# PKC [2] = details: K562 cells; cited from earlier work
# [3] = test system: cyclin dependent kinase 2 (Cdk2); details: at 5 ng/ml; cited from earlier work
# [4] = test system: murine leukemias and solid tumors; details: cited from earlier work
# PKC [5] = details: competes with [3H]phorbol dibutyrate; read-out: Ki for binding; cited from earlier work
# [6] = test system: squamous cell carcinoma and melanoma; details: used topically; cited from earlier work
# PKCa = PKCa (Homo sapiens, UniProt P17252); details: cited from earlier work
# NCI 60 cell line screen = details: cited from earlier work
# PKC [7] = details: cited from earlier work; remark: listed apart in the source
# rats = details: forced swimming test, 15 mg/kg×3 per day i.p., n=5; cited from earlier work
# protein kinase C = details: (−)-enantiomer; cited from earlier work
# [8] = (−)-enantiomer; cited from earlier work
# [9] = Examples 7-13, present tense, no dose, no data
molecule,measurement,setting,value
"CC(N)C(=O)OC(C)(C)Cc1ccc(Cl)cc1 (stereo not drawn) [Alaproclate, alaproclate]",duration of active swimming compared with control group,"Adult Wistar rats; rats, 10 mg/kg×3 per day",significantly longer
same,mobility (distance moved) / immobility compared with control group,Adult Wistar rats; rats,effective in reducing the immobility
CCCCCCCC(=O)O[C@H]1/C(=C/C(=O)OC)C[C@H]2C[C@H](CO)OC(=O)C[C@H](O)C[C@@H]3CCC[C@H](C[C@@H]4CCO[C@H](/C=C/C(C)(C)[C@]1(O)O2)O4)O3 [Analog 1],affinity for PKC (in words),PKC [1],highest affinity for PKC
same,potency relative to bryostatin-1,PKC [1],about 100 times
same,Ki,PKC [1]; read-out: PKC Affin,0.25 nM
"CCC/C=C/C=C/C(=O)O[C@H]1/C(=C/C(=O)OC)C[C@H]2C[C@H]([C@@H](C)O)OC(=O)C[C@H](O)C[C@@H]3C[C@H](OC(C)=O)C(C)(C)[C@](O)(C[C@@H]4C/C(=C/C(=O)OC)C[C@H](/C=C/C(C)(C)[C@]1(O)O2)O4)O3 [Bryostatin 1, bryostatin-1]",main adverse reaction,humans,myalgia
same,difference from imipramine group (10 mg/kg i.p. ×3),"Adult Wistar rats; rats, single i.v. dose 80 μg/kg",No significant difference
same,immobility compared with control group and imipramine group,"Adult Wistar rats; rats, single i.v. dose 80 μg/kg in the tail vein 3.5 hours before the second trial",effective in reducing immobility
"CCCCCC1CC1CC1CC1CCCCCCCC(=O)O (stereo not drawn) [DCP-LA, 2-[(2-pentylcyclopropyl)methyl]cyclopropaneoctanoic acid]",concentration of maximal effect,PKCε; activation of PKCε,100 nM
same,isoform selectivity of PKC activation,PKCε,selectively activates PKCε
"N[C@@H](Cc1ccccc1)C(=O)O [Effector 2, phenylalanine]",immobility compared with control group and imipramine group,"Adult Wistar rats; rats, single i.v. dose in the tail vein 3.5 hours before the second trial",effective in reducing the immobility
"N[C@@H](Cc1ccc(O)cc1)C(=O)O [Effector 4, 4-hydroxy phenylalanine]",immobility compared with control group and imipramine group,Adult Wistar rats; [9],effective in reducing immobility
"N[C@@H](Cc1ccc(F)cc1)C(=O)O [Effector 5, 4-fluoro phenylalanine]",immobility compared with control group and imipramine group,Adult Wistar rats; [9],effective in reducing immobility
"c1c[nH]cn1 [Effector 14, Imidazole]",immobility compared with control group and imipramine group,Adult Wistar rats; [9],effective in reducing immobility
C=C(C)[C@]12C[C@@H](COC(=O)c3ccccc3)[C@@]34OC5(O[C@@H]1[C@@H]3C1O[C@]1(CO)[C@@H](O)[C@@]1(O)[C@H]4[C@@H](C(C)CCCCCC[C@@H]5O)C(C)[C@@H]1OC(=O)c1ccccc1)O2 (stereo partly drawn) [Gnidimacrin],concentration at which it acts as a PKC activator,PKC [2],≈ 3 nM
same,inhibition of Cdk2,[3],100%
same,concentrations of potent antitumor activity,[4],0.1 to 1 nM
"CC1=C[C@]23C(=O)[C@@H](C=C(COC(=O)c4ccccc4)[C@@H](O)[C@]2(O)[C@H]1OC(=O)c1ccccc1)[C@H]1[C@@H](C[C@H]3C)C1(C)C [Ingenol 3,20-dibenzoate]",Ki,PKC [5],240 nM
C/C=C(/C)C(=O)O[C@H]1C(C)=C[C@]23C(=O)[C@@H](C=C(CO)[C@@H](O)[C@]12O)[C@H]1[C@@H](C[C@H]3C)C1(C)C [Ingenol-3-angelate],antitumor activity,[6],possesses antitumor activity
CC1=CC[C@H](C)C(C)(C)[C@@H]1/C=C/C(C)=C/CC[C@@]1(CO)[C@H](CCCO)/C(=C(/C)C=O)CC[C@]1(C)O [Iripallidal],Ki,PKCa,75.6 nM
same,GI50 (concentration required to inhibit growth by 50%),NCI 60 cell line screen,from micromolar to nanomolar range
"CCCCCCCNS(=O)(=O)c1cccc2c(Cl)cccc12 [SC-10, N-(n-heptyl)-5-chloro-1-naphthalenesulfonamide]",activation of PKC,PKC [7],activates PKC in a calcium-dependent manner
CCCCCCCC(=O)OC1C(=CC(=O)OC)CC2CC(CO)OC(=O)CC(O)CCOC(C(C)(C)C)CC3CCOC(C=CC(C)(C)C1(O)O2)O3 (stereo not drawn) [bryolog 3],Ki,"PKC [1]; A-ring bryologs, read-out: affinity for PKC",6.5 nM
CN(C)CCCN1c2ccccc2CCc2ccccc21 [imipramine],percentages of decreases in the distance moved on the third day (using the decrease of control groups as 100%),Adult Wistar rats; rats,49.8±7.6%
same,immobility % as control,rats,61.5±6.5%
CC(C)NNC(=O)c1ccncc1 [iproniazid],percentages of decreases in the distance moved on the third day (using the decrease of control groups as 100%),Adult Wistar rats; rats,44.0±7.7%
same,mobility (distance moved) / immobility compared with control group,Adult Wistar rats; rats,appeared more effective at the dose given than mianserin and imipramine
same,immobility % as control,rats,87.6±7.3%
CN1CCN2c3ccccc3Cc3ccccc3C2C1 (stereo not drawn) [mianserin],percentages of decreases in the distance moved on the third day (using the decrease of control groups as 100%),Adult Wistar rats; rats,33.3±6.3%
same,immobility % as control,rats,66.5±7.0%
"CCCCCCCCc1ccc2c3c(c[nH]c13)C[C@@H](CO)NC(=O)[C@H](C(C)C)N2C [octylindolactam V, Octylindolactam V]",EC50,protein kinase C,29 nM
same,metabolic stability,[8],greater metabolic stability
"FGF-18: peptide consisting of 207 amino acids, member of the fibroblast growth factor family (protein, UniProt O76093 28-207, looked up) Fibroblast growth factor 18: EENVDFRIHVENQTRARDDVSRKQLRLYQLYSRTSGKHIQVLGRRISARGEDGDKYAQLLVETDTFGSQVRIKGKETEFYLCMNRKGKLVGKPDGTSKECVFIEKVLENNYTALMSAKYSGWYVGFTKKGRPRKGPKTRENQQDVHFMKRYPKGQPELQKPFKYTTVTKRSRRIRPTHPA",immobility compared with control group and imipramine group,Adult Wistar rats; [9],effective in reducing immobility
